Assay results: patent publication US10092517B2, “Gelated microparticle suitable for oral delivery of therapeutic peptides to the lower intestine” (Insucaps Limited, priority 2015, dated 2018)

System: isolated rat colonic mucosae
Assay: TEER and Papp of [14C]-mannitol in isolated rat colonic mucosae mounted in Ussing chambers
Format: in vitro ADME
Procedure: Ussing Chambers allow the measurement of transport molecules from the apical side of a section of intestinal tissue (rodent) to the basolateral, thereby simulating passage across the gut wall in vivo. […] Their ability to improve intestinal permeability was testing in isolated rat colonic mucosae by measurement of transepithelial electrical resistance (TEER) and permeability of [14C]-mannitol. The permeability of the marker molecule, radioactively labelled sugar ([C14]-Mannitol) was calculated by scintillation counting.
The transepithelial potential difference (PD, mV) is measured in the open circuit configuration after which the tissue is voltage clamped to zero PD by insertion of the required short circuit current (Isc, μA cm^−2) by means of an automatic voltage clamp (EVC-4000 amplifier, WPI, UK).
Isc and PD are alternatively monitored by switching to open circuit conditions for 3 s every 30 s using a timer (Pro-4, WPI, UK). Analogue data was digitised with a Powerlab® data acquisition unit and analyzed with Chart® software package (AD instruments, UK).
Following an equilibration period of 45 min, baseline PD and Isc are measured and TEER (Ω cm^2) is calculated according to Ohm's law.
Transport of radiolabelled mannitol from the apical chamber to the basolateral chamber was used to measure intestinal permeability.
Following addition of [^14C]-mannitol (0.2 μCi) to the apical chamber flux is monitored periodically over two hours by sampling the serosal chamber (100 μL) every 20 minutes for two hours, and apically (100 μL) at time zero, replenishing with fresh KH buffer at each sampling point.
Samples containing [^14C]-mannitol were mixed with scintillation fluid and read in a scintillation analyzer (Packard Tricarb 2900 TR).
The apparent permeability coefficient (Papp) for mannitol and FD4 is calculated according to the equation; Papp (cm/s)=(dQ/dt) (1/AC0), where dQ/dt is the transport rate (mol/s); A is the surface area of the monolayer (cm^2), and C0 is the initial concentration in the donor compartment (mol/mL).

Row | Compound | TEER (10, 25 and 50 mg of TCA added to the encapsulation system) | enhancement of mannitol flux (25 mg Vitamin B12 in encapsulation systems) | TEER (Vitamin B12 in encapsulation systems, over 2 hours)
1 | C[C@H](CCC(=O)NCCS(=O)(=O)O)[C@H]1CC[C@H]2[C@@H]3[C@H](O)C[C@@H]4C[C@H](O)CC[C@]4(C)[C@H]3C[C@H](O)[C@]12C [TCA, taurocholic acid] | reduced TEER | – | –
2 | cyanocobalamin [Vitamin B12] | – | 11.5 fold | significantly reduced TEER
